From ChEMBL document CHEMBL1136310, “Pyrazino[1,2-a]indole-1,4-diones, simple analogues of gliotoxin, as selective inhibitors of geranylgeranyltransferase I” (Bioorg Med Chem Lett, 2003)

What was measured:
[1] = target: Protein farnesyltransferase (Homo sapiens, UniProt P49354+P49356); assay: Inhibition of [3H]FPP incorporation into recombinant human Ha-Ras-CVLS by farnesyl transferase; assay type: protein-complex assay
[2] = target: Geranylgeranyl transferase type I (Homo sapiens, UniProt P49354+P53609); assay: Inhibition of [3H]-GGPP incorporation into recombinant human Ha-Ras-CVLL by Geranylgeranyl transferase type I; assay type: protein-complex assay

| IC50 [1] [µM] | IC50 [2] [µM] | Structure (SMILES) |
| --- | --- | --- |
| > 100 | > 100 | CN1C(=O)c2cc3ccccc3n2C(=O)C1SSCc1ccccc1 (stereo unspecified) |
| > 100 | > 100 | COc1cccc2c1cc1n2C(=O)CN(C)C1=O |
| > 100 | > 100 | COc1cccc2c1cc1n2C(=O)C(SSCc2ccccc2)N(C)C1=O (stereo unspecified) |
| > 100 | > 100 | CN1CC(=O)N2c3ccccc3CC2C1=O (stereo unspecified) |

More lines, now with the values behind:

| Structure (SMILES) | IC50 [1] [µM] | IC50 [2] [µM] |
| --- | --- | --- |
| CN1CC(=O)n2c(cc3ccccc32)C1=O | > 100 | > 100 |
| COc1cccc2c1CC1C(=O)N(C)CC(=O)N21 (stereo unspecified) | > 100 | > 100 |
| CN1C(=O)[C@]23CC4=CC=C[C@H](O)[C@H]4N2C(=O)[C@@]1(CO)SS3 [GLIOTOXIN] | 80 | 17 |
| COc1cccc2c1cc1n2C(=O)C(SC(C)=O)N(C)C1=O (stereo unspecified) | 748 | 90.3 |
